# Structures can show the parent of a compound that is named as a salt.
# Key:
# [1] = system: rat hippocampus (Hip) ACh level; test: Increase of hippocampus ACh release in rats (microdialysis); assay type: in vivo; settings: direct injection (perfusion via dialysis probe, 120 min) into rat Hip; 100 nM eserine in aCSF
# Protocol: Increase of Hippocampus ACh Release in Rats
# Effects of Compound A on rat hippocampus (Hip) ACh level were tested using microdialysis in Male Wistar rats. One day before the start of the experiments, rats were anesthetized and guide cannula was implanted in the dorsal Hip. One day after surgery, a dialysis probe was inserted through a guide cannula in Hip and perfused with artificial cerebrospinal fluid (aCSF) containing 148 mM NaCl, 2.7 mM KCl, 1.2 mM CaCl2, 0.85 mM MgCl2, together with 100 nM eserine. After a 1 h equilibration period, sample collection began. Outflow fractions were collected every 20 min. After six stable baseline fractions were collected, the perfusate was replaced to aCSF containing Compound A with 100 nM eserine for 120 min, and then it was switched again to aCSF with 100 nM eserine alone. Dialysis fractions were then analyzed using high performance liquid chromatography with an electrochemical detection system. Isopropyl homocholine was used as internal standard. The amount of ACh in each dialysate sample was calculated from the peak height ratio of ACh/IPHC. ACh content was expressed as a percent of baseline calculated from the average of three samples preceding drug infusion.
# ACh content was expressed as a percent of baseline calculated from the average of three samples preceding drug infusion.
# Male IGS rats [2] = test: Rat Novel Object Recognition Study; assay type: in vivo
# Protocol: Rat Novel Object Recognition Study (Method Referred: PNAS, 101 (2003) 853-858)
# Male IGS rats (9 weeks-old, Charles River Laboratories Japan, Inc.) were used in this study. Compound A and donepezil hydrochloride (reference substance) were orally administered at 60 min before training trial and before retention trial. Number of animals per group was 15. Open-field box (40×40×40 cm) with sawdust covering its floor was used in this study. As for the training trials, the animals were allowed to explore two identical objects (A1 and A2) for 3 min. The objects are plastic “LEGO bricks” that vary in shape, color, and size. […]
# Exploration of an object was defined as pointing the nose to the object at a distance of <1 cm and/or touching it with the nose. DVD images were analyzed by an observer who was […] of the treatment condition. To assess cognitive performance, the time spent exploring the familiar (TA3) and novel (TB) object, and discrimination index (DI; (TB−TA3)/(TB+TA3)) was analyzed. […] To assess the overall levels of exploratory performance, total time spent exploring the both objects was analyzed.
# For Compound A, discrimination index was analyzed using Bartlett's test followed by Dunnett's multiple comparison test. […] For donepezil, discrimination index was analyzed using F-test, followed by Student's t-test. […]
# Tg2576 mice = test: Abeta reduction in Tg2576 mice; assay type: in vivo; settings: 1 and 10 mg/kg BID orally, three weeks; soluble plus insoluble Abeta, ELISA
# Protocol: Female Tg2576 mice that express the human amyloid precursor protein (APP) gene with the Swedish mutation (APPSWE) were purchased from Taconic Farms (catalog #001349-TF).
# Tg2576 mice (31-week old at the beginning of the experiment) were dosed orally twice a day (BID) for 3 weeks with 0.1, 1, or 10 mg/kg Compound A in the vehicle consisting of 0.5% methylcellulose and 0.1% Tween 80. Mice were euthanized three hours after the last dose. Brain tissues were collected and homogenized in 5-volumes of ice-cold TBS buffer (50 mM Tris-HCl) containing 1% CHAPS and protease inhibitors. The homogenates were centrifuged at 14,000 g for 10 minutes at 4° C., and the resulting supernatants were collected as soluble pool of Abeta. The pellets were dissolved in the starting volume of 5 M guanidine in TBS buffer and the resulting homogenates were collected as insoluble pool of Abeta. Abeta1-40 and Abeta1-42 were quantified using commercially available ELISA kits according to the manufacture's instructions. Measurements were performed in duplicate. The final values of Abeta in the brain were expressed as nanograms per gram wet brain weight. Total Abeta levels were obtained by adding the values of the soluble and insoluble Abeta levels.
# Male IGS rats [3] = test: Spontaneous alteration test in rats (scopolamine-induced impairment); assay type: in vivo, rat
# Protocol: Spontaneous Alteration Test in Rats (Method Referred: Eur. J. Pharmacol., 236 (1993) 341-345)
# Male IGS rats (6 weeks-old, Charles River Laboratories Japan, Inc.) were used in this study. The scopolamine solution or saline was administered intraperitoneally 30 minutes after the administration of the test substance or vehicle. Thirty minutes after the injection, the rat was placed at the end of one arm toward to the end of the arm and was allowed to move freely through the maze for 8-min test session. The sequence of arm entries was recorded manually. Alteration was defined as entry into all three arms on consecutive choices. The percent alteration as an indicator of spontaneous alteration performance was calculated as (number of alterations/total number of arm entries minus 2)×100.
# The effect of Compound A on the scopolamine-induced impairment of spontaneous alteration performance in rats was investigated. In the percent alterations, the values on saline- and scopolamine-treated groups were 75.2% and 53.9%, respectively.
# Abeta = settings: NPL 13; cited from earlier work
compound,measurement,setting,value
"CC(C)n1c(=O)n(C(=O)NCC2CCN(CC3(O)CCOCC3)CC2)c2ccccc21 [Compound A, N-((1-((4-hydroxytetrahydro-2H-pyran-4-yl)methyl)piperidin-4-yl)methyl)-3-isopropyl-2-oxo-2,3-dihydro-1H-benzo[d]imidazole-1-carboxamide]",ACh concentration (percent of baseline),[1],187%
same,discrimination index,"Male IGS rats [2]; Compound A 0.1, 0.3, 1 mg/kg, orally 60 min before training and retention trial, vs vehicle (*p<0.05, **p<0.01, Dunnett)",statistically significant compared to that in vehicle-treated group
same,total brain Abeta1-40 levels,Tg2576 mice,significantly decreased total brain Abeta1-40 levels
same,total brain Abeta1-42 levels,Tg2576 mice,dose-dependently and substantially decreased total brain Abeta1-42 levels
same,percent alteration,"Male IGS rats [3]; 0.1 and 3 mg/kg, scopolamine-induced impairment",showed a tendency to improve without statistical significance
same,percent alteration,"Male IGS rats [3]; doses of 0.3 and 1 mg/kg, scopolamine-induced impairment, vs vehicle-treated group (p<0.01)",significantly increased the percent alterations
CC(C)n1c(=O)c(C(=O)NCCCN2CCCCC2)c(O)c2ccsc21 [PRX-03140],Abeta reduction in animal models,Abeta,Abeta reducing tendency while those efficacies were not significant suppressions
"COc1cc2c(cc1OC)C(=O)C(CC1CCN(Cc3ccccc3)CC1)C2 (stereo not drawn) [donepezil, donepezil hydrochloride, reference compound]",discrimination index,"Male IGS rats [2]; donepezil-treated group, orally, vs vehicle (p<0.05, Student's t-test)",statistically significant compared to that in vehicle-treated group
"CN1[C@@H]2C[C@@H](OC(=O)[C@H](CO)c3ccccc3)C[C@H]1[C@@H]1O[C@@H]12 [scopolamine, reference compound]",percent alteration,"Male IGS rats [3]; scopolamine-treated group (intraperitoneal), saline-treated group 75.2%, p<0.01",53.9%
